Activity calls are given as the source filed them. The rule behind the calls is not given here.
What was measured:
HCT-116 [1] = assay: Induction of apoptosis in human HCT-116 cells assessed as early apoptotic cells at 1 uM incubated for 24 hrs in presence of 100 nM doxorubicin by AnnexinV-FITC/PI staining based flow cytometry (reference value: 3.04%); assay type: functional
[2] = molecular target: Phosphatidylinositol 4,5-bisphosphate 3-kinase catalytic subunit beta isoform (Homo sapiens, UniProt P42338); assay: Inhibition of human PI3Kbeta by ADP-Glo assay; assay type: toxicity
MCF7 [3] = assay: Synergistic antiproliferative activity against human MCF7 cells assessed as inhibition of cell growth in presence of 100 nM doxorubicin by MTT assay; assay type: functional, cell-based
MDA-MB-231 [4] = assay: Synergistic antiproliferative activity against human MDA-MB-231 cells assessed as inhibition of cell growth in presence of 100 nM doxorubicin by MTT assay; assay type: functional, cell-based
HepG2 [5] = assay: Synergistic antiproliferative activity against Doxorubicin-resistant human HepG2 cells assessed as inhibition of cell growth in presence of 100 nM doxorubicin by MTT assay; assay type: functional, cell-based
HCT-116 [6] = assay: Disruption of mitochondrial function in human HCT-116 cells assessed as decrease in mitochondrial membrane potential by measuring proportion of cells with red fluorescence at 1 uM incubated for 24 hrs by JC-1 staining based flow cytometry (reference value: 99.4%); assay type: functional; parameters: scale not given: the % may be the effect or the level left
HL-60 [7] = assay: Synergistic antiproliferative activity against human HL-60 cells assessed as combination index at 0.5 uM in presence of 0.1 uM doxorubicin by MTT assay; assay type: functional
HL-60 [8] = assay: Synergistic antiproliferative activity against human HL-60 cells assessed as combination index at 1 uM in presence of 0.1 uM doxorubicin by MTT assay; assay type: functional
HL-60 [9] = assay: Synergistic antiproliferative activity against human HL-60 cells assessed as combination index at 25 uM in presence of 0.1 uM doxorubicin by MTT assay; assay type: functional
HL-60 [10] = assay: Synergistic antiproliferative activity against human HL-60 cells assessed as combination index at 50 uM in presence of 0.1 uM doxorubicin by MTT assay; assay type: functional
HL-60 [11] = assay: Synergistic antiproliferative activity against human HL-60 cells assessed as combination index at 200 uM in presence of 0.1 uM doxorubicin by MTT assay; assay type: functional
MCF7 [12] = assay: Synergistic antiproliferative activity against human MCF7 cells assessed as combination index at 0.5 uM in presence of 0.1 uM doxorubicin by MTT assay; assay type: functional
MCF7 [13] = assay: Synergistic antiproliferative activity against human MCF7 cells assessed as combination index at 6.25 uM in presence of 0.1 uM doxorubicin by MTT assay; assay type: functional
MCF7 [14] = assay: Synergistic antiproliferative activity against human MCF7 cells assessed as combination index at 12.5 uM in presence of 0.1 uM doxorubicin by MTT assay; assay type: functional
MCF7 [15] = assay: Synergistic antiproliferative activity against human MCF7 cells assessed as combination index at 25 uM in presence of 0.1 uM doxorubicin by MTT assay; assay type: functional
MDA-MB-231 [16] = assay: Synergistic antiproliferative activity against human MDA-MB-231 cells assessed as combination index at 0.1 uM in presence of 0.1 uM doxorubicin by MTT assay; assay type: functional
MDA-MB-231 [17] = assay: Synergistic antiproliferative activity against human MDA-MB-231 cells assessed as combination index at 0.5 uM in presence of 0.1 uM doxorubicin by MTT assay; assay type: functional
MDA-MB-231 [18] = assay: Synergistic antiproliferative activity against human MDA-MB-231 cells assessed as combination index at 12.5 uM in presence of 0.1 uM doxorubicin by MTT assay; assay type: functional
MDA-MB-231 [19] = assay: Synergistic antiproliferative activity against human MDA-MB-231 cells assessed as combination index at 50 uM in presence of 0.1 uM doxorubicin by MTT assay; assay type: functional
MDA-MB-231 [20] = assay: Synergistic antiproliferative activity against human MDA-MB-231 cells assessed as combination index at 100 uM in presence of 0.1 uM doxorubicin by MTT assay; assay type: functional
HepG2 [21] = assay: Synergistic antiproliferative activity against Doxorubicin-resistant human HepG2 cells assessed as combination index at 3.1 uM in presence of 0.1 uM doxorubicin by MTT assay; assay type: functional
HepG2 [22] = assay: Synergistic antiproliferative activity against Doxorubicin-resistant human HepG2 cells assessed as combination index at 200 uM in presence of 0.1 uM doxorubicin by MTT assay; assay type: functional
HCT-116 [23] = assay: Induction of cell cycle arrest in human HCT-116 cells assessed as increase in accumulation of cells at […] at 1 uM incubated for 24 hrs in presence of 100 nM doxorubicin by PI staining based flow cytometry; assay type: functional
HCT-116 [24] = assay: Induction of cell cycle arrest in human HCT-116 cells assessed as increase in accumulation of cells at G2/M phase at 1 uM incubated for 24 hrs in presence of 100 nM doxorubicin by PI staining based flow cytometry; assay type: functional
HCT-116 [25] = assay: Inhibition of colony formation in human HCT-116 cells at 1 uM in presence of 100 nM doxorubicin; assay type: functional, cell-based
[26] = Plasma protein binding in rat assessed as free fraction; assay type: ADME, cell-free
[27] = Plasma protein binding in human assessed as free fraction; assay type: ADME, cell-free
[28] = Intrinsic clearance in human liver microsomes; assay type: ADME, Microsome; details: read-out: CLH
[29] = Tmax in Sprague-Dawley rat at 5 mg/kg, po; assay type: ADME, organism-based; details: in vivo
[30] = Cmax in Sprague-Dawley rat at 5 mg/kg, po; assay type: ADME, organism-based; parameters: dose 5 mg/kg, route po; details: in vivo
[31] = Toxicity in BALB/c nude mouse xenografted with human HL-60 cells assessed as serum lymphocytes content at 100 mg/kg, po qd for 16 days (reference value: 75.3%); assay type: organism-based; details: in vivo, 384 h, time 16 day
[32] = Toxicity in BALB/c nude mouse xenografted with human HL-60 cells assessed as serum monocytes content at 100 mg/kg, po qd for 16 days (reference value: 12.2%); assay type: organism-based; details: in vivo, 384 h, time 16 day
[33] = Toxicity in BALB/c nude mouse xenografted with human HL-60 cells assessed as HGB level at 100 mg/kg, po qd for 16 days (reference value: 156 g/L); assay type: organism-based; details: in vivo, 384 h, time 16 day
[34] = Toxicity in BALB/c nude mouse xenografted with human HL-60 cells assessed as MCH level at 100 mg/kg, po qd for 16 days (reference value: 14.1 pg); assay type: organism-based; details: in vivo, 384 h, time 16 day
[35] = Toxicity in BALB/c nude mouse xenografted with human HL-60 cells assessed as MCHC level at 100 mg/kg, po qd for 16 days (reference value: 246 g/L); assay type: organism-based; details: in vivo, 384 h, time 16 day
[36] = Toxicity in BALB/c nude mouse xenografted with human HL-60 cells assessed as RDW-CV level at 100 mg/kg, po qd for 16 days (reference value: 14.25%); assay type: organism-based; details: in vivo, 384 h, time 16 day
[37] = Toxicity in BALB/c nude mouse xenografted with human HL-60 cells assessed as MPV level at 100 mg/kg, po qd for 16 days (reference value: 7.55 fL); assay type: organism-based; details: in vivo, 384 h, time 16 day
[38] = Toxicity in BALB/c nude mouse xenografted with human HL-60 cells assessed as PDW level at 100 mg/kg, po qd for 16 days (reference value: 8.16 fL); assay type: organism-based; details: in vivo, 384 h, time 16 day

Phosphatidylinositol 4,5-bisphosphate 3-kinase catalytic subunit beta isoform, sequence (P42338 whole entry, canonical isoform): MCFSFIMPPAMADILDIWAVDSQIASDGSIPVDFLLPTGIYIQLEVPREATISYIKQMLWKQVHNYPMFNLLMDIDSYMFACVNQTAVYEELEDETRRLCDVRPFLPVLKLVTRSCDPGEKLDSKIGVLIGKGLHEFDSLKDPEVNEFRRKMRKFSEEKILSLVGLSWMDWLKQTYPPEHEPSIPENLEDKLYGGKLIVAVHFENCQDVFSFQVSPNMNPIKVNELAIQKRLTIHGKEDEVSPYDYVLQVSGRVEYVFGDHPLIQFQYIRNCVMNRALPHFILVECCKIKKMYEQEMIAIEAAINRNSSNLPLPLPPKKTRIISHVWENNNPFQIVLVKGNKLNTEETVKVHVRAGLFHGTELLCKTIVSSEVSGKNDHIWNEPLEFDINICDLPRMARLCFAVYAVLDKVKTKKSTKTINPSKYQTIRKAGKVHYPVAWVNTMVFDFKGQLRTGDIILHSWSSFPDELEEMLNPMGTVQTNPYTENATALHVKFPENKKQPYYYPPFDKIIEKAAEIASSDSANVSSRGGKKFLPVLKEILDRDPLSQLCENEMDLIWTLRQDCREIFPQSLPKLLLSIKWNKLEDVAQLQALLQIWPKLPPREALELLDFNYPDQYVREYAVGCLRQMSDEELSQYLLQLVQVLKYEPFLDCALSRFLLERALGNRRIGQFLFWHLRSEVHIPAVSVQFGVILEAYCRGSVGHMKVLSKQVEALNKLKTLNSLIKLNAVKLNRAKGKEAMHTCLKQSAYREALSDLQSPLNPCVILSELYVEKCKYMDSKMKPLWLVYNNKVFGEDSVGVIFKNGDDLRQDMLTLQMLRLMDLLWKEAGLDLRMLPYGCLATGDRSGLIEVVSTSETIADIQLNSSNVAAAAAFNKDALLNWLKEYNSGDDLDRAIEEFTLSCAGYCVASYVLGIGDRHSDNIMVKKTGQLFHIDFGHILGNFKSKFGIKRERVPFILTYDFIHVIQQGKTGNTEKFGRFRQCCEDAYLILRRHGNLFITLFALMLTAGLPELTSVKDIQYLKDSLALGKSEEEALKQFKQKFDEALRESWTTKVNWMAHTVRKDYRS

fraction unbound [26]: 0.667 | fraction unbound [27]: 0.859 | microsomal CLint [28]: < 9.6 µL/min/mg | Tmax [29]: 25.2 min | Cmax [30]: 810 ng/mL
SMILES: Cc1cc2ncnn2cc1Nc1ncc2c(n1)N(C1CCOCC1)CC(=O)N2C
Activity (HCT-116 [1]): 13.3% | IC50 [2]: 830 nM | Activity (MCF7 [3]): Active | Activity (MDA-MB-231 [4]): Active | Activity (HepG2 [5]): Active | Activity (HCT-116 [6]): 96.4% | CI (HL-60 [7]): 0.00341 | CI (HL-60 [8]): 0.00616 | CI (HL-60 [9]): 0.1382 | CI (HL-60 [10]): 0.2758 | CI (HL-60 [11]): 0.9812 | CI (MCF7 [12]): 0.04646 | CI (MCF7 [13]): 0.06841 | CI (MCF7 [14]): 0.06131 | CI (MCF7 [15]): 0.06966 | CI (MDA-MB-231 [16]): 0.4431 | CI (MDA-MB-231 [17]): 0.3617 | CI (MDA-MB-231 [18]): 0.474 | CI (MDA-MB-231 [19]): 0.705 | CI (MDA-MB-231 [20]): 0.9806 | CI (HepG2 [21]): 0.02104 | CI (HepG2 [22]): 0.2062 | Activity (HCT-116 [23]): Active | Activity (HCT-116 [24]): 57.27% | inhibition (HCT-116 [25]): Active | Activity [31]: 77.25% | Activity [32]: 12.15% | Activity [33]: 148 g/L | Activity [34]: 14.2 pg | Activity [35]: 249 g/L | Activity [36]: 15% | Activity [37]: 6.85 fL | Activity [38]: 7.4 fL
